From ChEMBL document CHEMBL1145656, “Production of cytotoxic canthin-6-one alkaloids by Ailanthus altissima plant cell cultures” (J Nat Prod, 1983) come the findings set out here.

≈ marks a conversion by molar mass, not a printed value.

This assay is described as follows: Cytotoxicity against GPK cells by [3H]thymidine incorporation assay. It counts as functional, cell-based. Conditions: Cavia porcellus.
`O=c1ccc2c3c(cc[n+]2[O-])c2ccccc2n13` showed an IC50 of 4.21 µg/mL (≈ 17.8 µM).

`COc1cnc2ccc(=O)n3c4ccccc4c1c23` gave an IC50 of 5.76 µg/mL (≈ 23 µM). For the compound `COc1cc2nccc3c4ccccc4n(c1=O)c23` [5-METHOXYCANTHINONE], half-maximal inhibition (IC50) required 5.44 µg/mL (≈ 21.7 µM). `O=c1ccc2nccc3c4ccccc4n1c23` [CANTHIN-6-ONE] registered an IC50 of 1.11 µg/mL (≈ 5.04 µM).
